SMILES strings stand for the structures.

In test [1] the target is Serine/threonine-protein kinase 35 (Homo sapiens) (UniProt Q8TDR2). Put plainly: Selectivity interaction (KinomeScan (DiscoverX)) EUB0000595a STK35. The following applies: at 10 µM.
Test [2] deals with T1, Serine/threonine-protein kinase LATS1 (Homo sapiens) (UniProt O95835).
T1 sequence (whole entry): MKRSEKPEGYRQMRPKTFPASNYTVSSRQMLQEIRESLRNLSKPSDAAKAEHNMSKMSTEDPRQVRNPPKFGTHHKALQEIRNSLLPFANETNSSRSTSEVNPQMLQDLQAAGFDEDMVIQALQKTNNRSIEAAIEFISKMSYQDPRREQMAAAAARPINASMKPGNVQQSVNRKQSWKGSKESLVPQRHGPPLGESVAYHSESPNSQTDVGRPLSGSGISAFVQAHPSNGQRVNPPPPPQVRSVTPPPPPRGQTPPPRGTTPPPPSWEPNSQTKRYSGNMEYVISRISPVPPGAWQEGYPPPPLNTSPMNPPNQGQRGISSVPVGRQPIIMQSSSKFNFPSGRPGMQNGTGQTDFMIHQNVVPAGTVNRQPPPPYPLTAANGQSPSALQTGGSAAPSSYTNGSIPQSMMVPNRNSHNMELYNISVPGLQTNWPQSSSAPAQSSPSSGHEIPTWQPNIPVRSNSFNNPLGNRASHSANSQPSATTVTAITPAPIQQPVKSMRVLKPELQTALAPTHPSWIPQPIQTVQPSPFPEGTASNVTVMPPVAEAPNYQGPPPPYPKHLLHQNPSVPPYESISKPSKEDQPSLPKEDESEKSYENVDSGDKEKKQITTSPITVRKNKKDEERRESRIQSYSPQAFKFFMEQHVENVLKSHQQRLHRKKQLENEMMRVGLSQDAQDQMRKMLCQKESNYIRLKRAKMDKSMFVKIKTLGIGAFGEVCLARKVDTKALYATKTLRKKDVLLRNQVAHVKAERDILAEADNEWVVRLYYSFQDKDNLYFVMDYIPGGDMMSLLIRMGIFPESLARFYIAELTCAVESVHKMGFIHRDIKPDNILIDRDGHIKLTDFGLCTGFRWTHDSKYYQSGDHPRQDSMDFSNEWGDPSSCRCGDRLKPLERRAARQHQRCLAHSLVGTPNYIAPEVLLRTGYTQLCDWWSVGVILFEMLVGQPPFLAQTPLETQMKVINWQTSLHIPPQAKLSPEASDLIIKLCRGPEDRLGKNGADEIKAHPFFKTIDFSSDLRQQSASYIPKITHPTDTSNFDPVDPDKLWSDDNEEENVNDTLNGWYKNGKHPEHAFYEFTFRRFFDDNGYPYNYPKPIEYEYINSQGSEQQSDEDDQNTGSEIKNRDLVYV
The note with it: at 10 µM.

Test [3] deals with T2, cGMP-dependent protein kinase 2 (Homo sapiens) (UniProt Q13237).
T2 sequence (whole entry): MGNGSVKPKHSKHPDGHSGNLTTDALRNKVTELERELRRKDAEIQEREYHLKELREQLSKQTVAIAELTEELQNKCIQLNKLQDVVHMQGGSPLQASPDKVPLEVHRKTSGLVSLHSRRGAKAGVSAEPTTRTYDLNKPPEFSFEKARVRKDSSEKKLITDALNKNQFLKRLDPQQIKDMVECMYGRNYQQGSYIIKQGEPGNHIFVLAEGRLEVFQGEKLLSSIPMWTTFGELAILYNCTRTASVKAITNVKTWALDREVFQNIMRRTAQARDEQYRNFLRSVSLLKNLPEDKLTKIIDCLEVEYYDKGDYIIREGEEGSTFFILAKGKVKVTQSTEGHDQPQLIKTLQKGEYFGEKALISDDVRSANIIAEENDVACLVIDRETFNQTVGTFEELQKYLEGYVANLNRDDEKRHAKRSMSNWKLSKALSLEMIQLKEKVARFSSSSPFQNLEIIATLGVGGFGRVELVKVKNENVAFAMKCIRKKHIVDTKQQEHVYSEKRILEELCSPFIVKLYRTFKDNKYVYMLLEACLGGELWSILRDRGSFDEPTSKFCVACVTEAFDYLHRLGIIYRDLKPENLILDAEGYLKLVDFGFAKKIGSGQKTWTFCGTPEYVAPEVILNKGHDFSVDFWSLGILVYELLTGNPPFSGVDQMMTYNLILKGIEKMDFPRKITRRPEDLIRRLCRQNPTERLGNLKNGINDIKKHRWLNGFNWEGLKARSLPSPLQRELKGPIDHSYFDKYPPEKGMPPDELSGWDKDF
Put plainly: Selectivity interaction (SelectScreen profiling (Invitrogen)) EUB0000607a PRKG2. The note with it: at 2 µM.

In test [4] the target is Hepatocyte growth factor receptor (Homo sapiens, UniProt P08581). The note with it: at 10 µM.
The target in test [5] is Macrophage colony-stimulating factor 1 receptor (Homo sapiens) (UniProt P07333). The test is described as follows: Selectivity interaction (Kinase panel (Invitrogen)) EUB0000639a CSF1R. The note with it: at 200 nM.
Test [6] concerns the target Serine/threonine-protein kinase N1 (Homo sapiens, UniProt Q16512). Put plainly: Selectivity interaction (KinomeScan (DiscoverX)) EUB0000045b PKN1.
The target in test [7] is Mitogen-activated protein kinase kinase kinase kinase 4 (Homo sapiens, UniProt O95819). Put plainly: Selectivity interaction (Ambit KINOMEscan and KiNATiv profiling in Jurkat cells) EUB0000090b MAP4K4. The class given is cell-based. The following applies: at 1 µM.
Test [8] has as its target T3, Histone-lysine N-methyltransferase SMYD3 (Homo sapiens) (UniProt Q9H7B4).
T3 sequence (whole entry): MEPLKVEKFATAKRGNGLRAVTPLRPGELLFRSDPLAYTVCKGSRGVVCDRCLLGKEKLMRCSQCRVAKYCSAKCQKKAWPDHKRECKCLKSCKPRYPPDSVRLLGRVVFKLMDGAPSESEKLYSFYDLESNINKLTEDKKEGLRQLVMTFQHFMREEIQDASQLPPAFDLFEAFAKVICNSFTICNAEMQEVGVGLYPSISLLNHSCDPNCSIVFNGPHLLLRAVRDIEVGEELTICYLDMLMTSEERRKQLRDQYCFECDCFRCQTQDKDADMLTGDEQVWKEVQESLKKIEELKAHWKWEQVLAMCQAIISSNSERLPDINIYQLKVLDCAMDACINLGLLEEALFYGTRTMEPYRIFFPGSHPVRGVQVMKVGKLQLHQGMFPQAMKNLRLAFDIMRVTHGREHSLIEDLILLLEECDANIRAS
Put plainly: Selectivity interaction (Methyltransferase screen (radiometric assays, panel of 8 PRMTs, 21 protein lysine methyltransferases, 3 DNA methyltransferases, and one RNA methyltransferase)) EUB0000272b SMYD3.

Chain of Serine/threonine-protein kinase N1 (Q16512 2-942 limits assumed): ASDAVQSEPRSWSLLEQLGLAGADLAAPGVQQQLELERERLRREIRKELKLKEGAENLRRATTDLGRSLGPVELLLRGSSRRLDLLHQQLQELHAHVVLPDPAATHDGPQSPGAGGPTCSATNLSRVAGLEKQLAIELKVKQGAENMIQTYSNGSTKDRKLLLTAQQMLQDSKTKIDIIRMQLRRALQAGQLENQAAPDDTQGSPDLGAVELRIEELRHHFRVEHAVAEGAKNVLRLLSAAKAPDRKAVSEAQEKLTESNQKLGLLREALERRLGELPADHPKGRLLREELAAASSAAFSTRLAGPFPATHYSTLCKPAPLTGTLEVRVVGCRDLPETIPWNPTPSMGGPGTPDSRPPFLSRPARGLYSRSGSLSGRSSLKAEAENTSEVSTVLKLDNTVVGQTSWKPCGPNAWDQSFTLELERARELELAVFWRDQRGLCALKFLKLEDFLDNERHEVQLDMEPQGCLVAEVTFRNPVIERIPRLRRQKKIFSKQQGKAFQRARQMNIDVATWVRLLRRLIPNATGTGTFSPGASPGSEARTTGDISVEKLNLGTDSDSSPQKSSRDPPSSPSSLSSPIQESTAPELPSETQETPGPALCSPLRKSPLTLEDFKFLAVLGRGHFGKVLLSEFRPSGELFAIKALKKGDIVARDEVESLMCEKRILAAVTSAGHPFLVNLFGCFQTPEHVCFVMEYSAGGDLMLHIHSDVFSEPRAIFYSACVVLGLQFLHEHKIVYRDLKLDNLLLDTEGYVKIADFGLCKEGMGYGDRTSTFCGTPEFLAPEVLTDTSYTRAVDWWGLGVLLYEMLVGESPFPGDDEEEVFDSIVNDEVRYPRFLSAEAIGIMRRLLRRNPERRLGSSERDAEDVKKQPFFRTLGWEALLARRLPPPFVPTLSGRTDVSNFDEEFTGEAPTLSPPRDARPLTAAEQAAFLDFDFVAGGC
Chain of Serine/threonine-protein kinase 35 (Homo sapiens) (Q8TDR2 whole entry): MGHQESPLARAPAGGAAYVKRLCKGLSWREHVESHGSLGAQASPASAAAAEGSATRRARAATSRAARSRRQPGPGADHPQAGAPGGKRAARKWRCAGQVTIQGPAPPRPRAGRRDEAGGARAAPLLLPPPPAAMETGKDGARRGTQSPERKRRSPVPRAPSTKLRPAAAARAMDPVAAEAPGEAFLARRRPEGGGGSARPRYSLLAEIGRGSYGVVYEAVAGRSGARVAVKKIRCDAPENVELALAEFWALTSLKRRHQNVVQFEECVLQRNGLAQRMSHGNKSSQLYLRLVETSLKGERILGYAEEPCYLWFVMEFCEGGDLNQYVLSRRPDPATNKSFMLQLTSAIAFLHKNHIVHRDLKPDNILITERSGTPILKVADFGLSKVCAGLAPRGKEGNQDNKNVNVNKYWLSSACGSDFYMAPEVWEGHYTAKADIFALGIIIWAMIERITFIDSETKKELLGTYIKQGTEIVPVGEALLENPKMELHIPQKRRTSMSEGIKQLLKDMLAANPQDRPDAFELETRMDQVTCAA
Chain of Mitogen-activated protein kinase kinase kinase kinase 4 (O95819 2-1239 limits assumed): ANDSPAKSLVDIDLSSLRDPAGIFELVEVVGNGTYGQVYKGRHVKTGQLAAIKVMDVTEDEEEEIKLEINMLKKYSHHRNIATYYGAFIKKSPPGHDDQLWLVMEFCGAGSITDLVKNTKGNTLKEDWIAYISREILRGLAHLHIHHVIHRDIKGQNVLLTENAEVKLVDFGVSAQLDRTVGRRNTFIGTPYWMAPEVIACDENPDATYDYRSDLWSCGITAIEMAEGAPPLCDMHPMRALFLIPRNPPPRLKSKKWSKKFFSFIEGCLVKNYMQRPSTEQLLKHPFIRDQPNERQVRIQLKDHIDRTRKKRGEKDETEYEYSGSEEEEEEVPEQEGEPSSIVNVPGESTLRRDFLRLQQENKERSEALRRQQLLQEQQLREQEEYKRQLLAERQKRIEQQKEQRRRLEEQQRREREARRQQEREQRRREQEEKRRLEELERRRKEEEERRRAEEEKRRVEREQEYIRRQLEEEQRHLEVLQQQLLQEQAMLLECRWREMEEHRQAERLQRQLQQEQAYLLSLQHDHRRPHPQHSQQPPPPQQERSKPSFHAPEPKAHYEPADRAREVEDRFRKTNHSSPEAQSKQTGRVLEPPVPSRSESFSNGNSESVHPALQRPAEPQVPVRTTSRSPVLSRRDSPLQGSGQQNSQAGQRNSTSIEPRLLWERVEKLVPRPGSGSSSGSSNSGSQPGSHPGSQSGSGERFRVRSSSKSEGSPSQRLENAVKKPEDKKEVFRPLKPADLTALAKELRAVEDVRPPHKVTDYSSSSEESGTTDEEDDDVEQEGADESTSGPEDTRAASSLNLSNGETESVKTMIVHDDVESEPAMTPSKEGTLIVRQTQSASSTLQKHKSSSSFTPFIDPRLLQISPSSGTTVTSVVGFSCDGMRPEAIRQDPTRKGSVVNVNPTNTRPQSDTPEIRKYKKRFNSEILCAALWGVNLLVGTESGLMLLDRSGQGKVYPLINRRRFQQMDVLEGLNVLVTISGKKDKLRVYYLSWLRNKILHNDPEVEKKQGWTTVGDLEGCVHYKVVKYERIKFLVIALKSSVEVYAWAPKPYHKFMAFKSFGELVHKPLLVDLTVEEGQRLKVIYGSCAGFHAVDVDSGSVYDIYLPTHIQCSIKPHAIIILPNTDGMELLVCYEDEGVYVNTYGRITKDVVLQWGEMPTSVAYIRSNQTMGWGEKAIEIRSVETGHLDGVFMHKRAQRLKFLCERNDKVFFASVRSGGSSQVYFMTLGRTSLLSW
Chain of Hepatocyte growth factor receptor (P08581 whole entry): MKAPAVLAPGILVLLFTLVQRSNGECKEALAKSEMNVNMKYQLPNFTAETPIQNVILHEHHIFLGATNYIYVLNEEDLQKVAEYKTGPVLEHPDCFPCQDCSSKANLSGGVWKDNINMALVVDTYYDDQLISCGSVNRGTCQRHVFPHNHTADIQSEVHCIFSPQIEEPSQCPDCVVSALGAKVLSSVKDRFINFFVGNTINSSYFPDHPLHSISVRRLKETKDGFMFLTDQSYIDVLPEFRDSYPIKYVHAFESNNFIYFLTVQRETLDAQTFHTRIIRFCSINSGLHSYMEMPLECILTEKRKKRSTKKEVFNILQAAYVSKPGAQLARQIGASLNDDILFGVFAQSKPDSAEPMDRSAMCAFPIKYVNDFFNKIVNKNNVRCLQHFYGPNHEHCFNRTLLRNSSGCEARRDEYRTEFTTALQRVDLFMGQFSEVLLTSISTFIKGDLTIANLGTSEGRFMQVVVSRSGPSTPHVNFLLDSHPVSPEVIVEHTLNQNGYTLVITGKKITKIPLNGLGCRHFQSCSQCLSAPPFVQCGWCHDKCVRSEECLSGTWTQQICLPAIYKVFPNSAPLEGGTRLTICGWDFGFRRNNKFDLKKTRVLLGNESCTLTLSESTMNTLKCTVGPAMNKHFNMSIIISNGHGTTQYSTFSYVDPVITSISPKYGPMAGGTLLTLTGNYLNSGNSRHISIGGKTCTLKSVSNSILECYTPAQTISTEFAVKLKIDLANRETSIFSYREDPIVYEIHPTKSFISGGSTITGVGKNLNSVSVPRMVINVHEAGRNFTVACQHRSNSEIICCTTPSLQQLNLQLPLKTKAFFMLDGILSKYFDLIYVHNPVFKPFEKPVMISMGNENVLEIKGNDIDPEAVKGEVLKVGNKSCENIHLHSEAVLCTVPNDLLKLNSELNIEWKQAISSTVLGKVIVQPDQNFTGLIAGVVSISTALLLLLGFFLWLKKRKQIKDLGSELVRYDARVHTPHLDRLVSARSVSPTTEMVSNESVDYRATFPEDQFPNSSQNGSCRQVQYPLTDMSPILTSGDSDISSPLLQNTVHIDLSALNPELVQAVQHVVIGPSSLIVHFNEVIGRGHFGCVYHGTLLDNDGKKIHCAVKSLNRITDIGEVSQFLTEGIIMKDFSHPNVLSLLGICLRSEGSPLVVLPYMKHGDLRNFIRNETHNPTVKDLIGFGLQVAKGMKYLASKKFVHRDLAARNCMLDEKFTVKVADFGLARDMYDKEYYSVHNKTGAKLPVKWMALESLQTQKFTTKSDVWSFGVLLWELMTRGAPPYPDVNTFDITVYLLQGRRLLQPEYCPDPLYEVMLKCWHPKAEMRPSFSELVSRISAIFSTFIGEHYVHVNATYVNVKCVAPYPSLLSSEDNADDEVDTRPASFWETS
Chain of Macrophage colony-stimulating factor 1 receptor (Homo sapiens) (P07333 whole entry): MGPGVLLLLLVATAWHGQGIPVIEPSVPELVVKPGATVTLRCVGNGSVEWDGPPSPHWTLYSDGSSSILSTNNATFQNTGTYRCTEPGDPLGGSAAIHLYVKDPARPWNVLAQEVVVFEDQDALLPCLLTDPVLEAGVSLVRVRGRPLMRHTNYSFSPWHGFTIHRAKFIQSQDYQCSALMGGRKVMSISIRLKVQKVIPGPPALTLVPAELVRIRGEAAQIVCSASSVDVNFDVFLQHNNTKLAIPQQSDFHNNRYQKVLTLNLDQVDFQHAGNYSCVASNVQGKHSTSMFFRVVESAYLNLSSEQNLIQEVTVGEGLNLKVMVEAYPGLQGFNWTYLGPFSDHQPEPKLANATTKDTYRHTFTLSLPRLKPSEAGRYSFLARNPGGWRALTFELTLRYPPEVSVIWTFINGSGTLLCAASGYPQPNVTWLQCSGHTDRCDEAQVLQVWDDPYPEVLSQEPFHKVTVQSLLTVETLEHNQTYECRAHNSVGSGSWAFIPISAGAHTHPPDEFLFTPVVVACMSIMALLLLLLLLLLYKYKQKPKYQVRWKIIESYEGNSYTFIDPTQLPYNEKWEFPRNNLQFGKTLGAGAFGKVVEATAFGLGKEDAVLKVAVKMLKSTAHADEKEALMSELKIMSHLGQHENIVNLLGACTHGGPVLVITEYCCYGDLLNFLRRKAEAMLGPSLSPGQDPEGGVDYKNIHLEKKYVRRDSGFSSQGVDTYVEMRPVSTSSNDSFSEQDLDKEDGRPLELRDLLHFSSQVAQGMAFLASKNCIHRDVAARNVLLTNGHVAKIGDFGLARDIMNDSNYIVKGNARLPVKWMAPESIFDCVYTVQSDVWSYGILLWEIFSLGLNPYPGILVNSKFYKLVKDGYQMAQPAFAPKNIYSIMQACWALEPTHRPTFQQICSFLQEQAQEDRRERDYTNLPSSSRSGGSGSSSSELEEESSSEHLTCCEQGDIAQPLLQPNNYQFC

As to `COCC(=O)NC/C=C/c1ccc2ncnc(Nc3ccc(Oc4ccc(C)nc4)c(C)c3)c2c1` [CP-724714], the % of control in test [1] turned out to be 65%; in test [2], 100%.
In test [3], `CNC(=O)Nc1ccc(-c2nc(N3CC4CCC(C3)O4)c3cnn(C4CCC5(CC4)OCCO5)c3n2)cc1` displayed a % of inhibition of 9%.
On to `Cc1cc([C@@H](C)Nc2ccccc2C(=O)O)c2nc(N3CCOCC3)cc(=O)n2c1` [AZD-6482], for which the % of control in test [4] was determined as 86%.
`CC[C@@H]1[C@H](F)C(=O)N[C@@H]1COc1nccc2cc(C(N)=O)c(OC)cc12` [ZIMLOVISERTIB] displayed a % of inhibition in test [5] of 5.5%.
`C=CC(=O)Nc1cc(-n2c(=O)ccc3cnc4ccc(-c5ccc(NS(C)(=O)=O)cc5)cc4c32)ccc1C`: the values for the % of control in test [6] (at 1 µM) and in test [6] (at 10 µM) were 100% and 99%, respectively.
Consider `CN(C)C/C=C/C(=O)Nc1ccc(C(=O)N2CCCC(Nc3ncc(Cl)c(-c4c[nH]c5ccccc45)n3)C2)cc1` (stereo not given), for which the % of control in test [7] stood at 78%.
Take `Cc1cc(C)cc([C@H]2c3cc(C)ccc3NC(=O)CN2C(=O)c2ccc(Br)s2)c1`: the % of activity was found to be 97.3% in test [8] (at 1 µM) and 102% in test [8] (at 10 µM).

Source of the values: ChEMBL document CHEMBL5465560, “Selectivity Literature for EUbOPEN Chemogenomic Library” (2024).
